From patent US8207172B2 (Bayer Intellectual Property GmbH, priority 2004, dated 2012)
Where a name gives a salt, the structure may show the parent alone.

Assays:
[1] = system: A431 cells (human epidermoid carcinoma); experiment: In vitro tumor cell proliferation assay (Cell Titer-Glo luminescent cell viability), A431; assay type: cell-based; settings: A-431, 72 h, 72 hours of drug exposure, ATP luminescence readout, read-out: IC50, anti-proliferative activity (inhibition of cell proliferation)
Procedure, shortened: (§1)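 IC50 values reflect ATP-based luminescence (CellTiter-Glo) after 72 h compound exposure at 37°C. Both lines, A431 and BT474, were plated in RPMI with 10% FBS and received serial dilutions ranging from 100 μM to 64 pM final at 0.1% DMSO.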

[2] = system: BT474 (human breast carcinoma); experiment: In vitro tumor cell proliferation assay (Cell Titer-Glo luminescent cell viability), BT474; assay type: cell-based; settings: BT-474, 72 h, BT474 cells, 72 hours of drug exposure, ATP luminescence readout, read-out: IC50, anti-proliferative activity (inhibition of cell proliferation)
Procedure, shortened: as §1

| SMILES | IC50 [1] [µM] | IC50 [2] [µM] |
| --- | --- | --- |
| CN(C)[C@H]1CCN(CC(=O)N2CCC(Cn3cc4c(n3)CCc3c-4sc4ncnc(Nc5ccc(OCc6cccc(F)c6)c(Cl)c5)c34)CC2)C1 [Example 235, N-{3-chloro-4-[(3-fluorobenzyl)oxy]phenyl}-2-[(1-{[(3S)-3-(dimethylamino)pyrrolidin-1-yl]acetyl}piperidin-4-yl)methyl]-4,5-dihydro-2H-pyrimido[5′,4′:4,5]thieno[2,3-e]indazol-6-amine] | ≤ 5 | ≤ 1 |
| CN1CCC(Cn2cc3c(n2)CCc2c-3sc3ncnc(Nc4ccc(OCc5cccc(F)c5)c(Cl)c4)c23)CC1 [Example 236, N-{3-chloro-4-[(3-fluorobenzyl)oxy]phenyl}-2-[(1-methylpiperidin-4-yl)methyl]-4,5-dihydro-2H-pyrimido[5′,4′:4,5]thieno-[2,3-e]indazol-6-amine] | ≤ 5 | ≤ 1 |
| CN1CCN(CC(=O)N2CCC(Cn3cc4c(n3)CCc3c-4sc4ncnc(Nc5ccc(OCc6cccc(F)c6)c(Cl)c5)c34)CC2)CC1 [Example 237] | ≤ 5 | ≤ 1 |
| O=C(CN1CCOCC1)N1CCC(Cn2cc3c(n2)CCc2c-3sc3ncnc(Nc4ccc(OCc5cccc(F)c5)c(Cl)c4)c23)CC1 [Example 238, N-{3-chloro-4-[(3-fluorobenzyl)oxy]phenyl}-2-{[1-(morpholin-4-ylacetyl)piperidin-4-yl]methyl}-4,5-dihydro-2H-pyrimido[5′,4′:4,5]thieno[2,3-e]indazol-6-amine] | ≤ 5 | ≤ 1 |
| O=C(CN1CCCC1)N1CCC(Cn2cc3c(n2)CCc2c-3sc3ncnc(Nc4ccc(OCc5cccc(F)c5)c(Cl)c4)c23)CC1 [Example 239, N-{3-chloro-4-[(3-fluorobenzyl)oxy]phenyl}-2-{[1-(pyrrolidin-1-ylacetyl)piperidin-4-yl]methyl}-4,5-dihydro-2H-pyrimido[5′,4′:4,5]thieno[2,3-e]indazol-6-amine] | ≤ 5 | ≤ 1 |
| O=C(CN(CCO)CCO)N1CCC(Cn2cc3c(n2)CCc2c-3sc3ncnc(Nc4ccc(OCc5cccc(F)c5)c(Cl)c4)c23)CC1 [Example 240, 2,2′-{[2-(4-{[6-({3-chloro-4-[(3-fluorobenzyl)oxy]phenyl}amino)-4,5-dihydro-2H-pyrimido[5′,4′:4,5]thieno[2,3-e]indazol-2-yl]methyl}piperidin-1-yl)-2-oxoethyl]imino}diethanol] | ≤ 5 | ≤ 1 |
| CN(C)CC(=O)N1CCC(Cn2cc3c(n2)CCc2c-3sc3ncnc(Nc4ccc(OCc5cccc(F)c5)c(Cl)c4)c23)CC1 [Example 241, N-{3-chloro-4-[(3-fluorobenzyl)oxy]phenyl}-2-({1-[(dimethylamino)acetyl]piperidin-4-yl}methyl)-4,5-dihydro-2H-pyrimido[5′,4′:4,5]thieno[2,3-e]indazol-6-amine trifluoroacetate] | ≤ 5 | ≤ 1 |
| CCN(CC)CC(=O)N1CCC(Cn2cc3c(n2)CCc2c-3sc3ncnc(Nc4ccc(OCc5cccc(F)c5)c(Cl)c4)c23)CC1 [Example 242, N-{3-chloro-4-[(3-fluorobenzyl)oxy]phenyl}-2-({1-[(diethylamino)acetyl]piperidin-4-yl}methyl)-4,5-dihydro-2H-pyrimido[5′,4′:4,5]thieno[2,3-e]indazol-6-amine trifluoroacetate] | ≤ 5 | ≤ 1 |
| CCCN1CCC(Cn2cc3c(n2)CCc2c-3sc3ncnc(Nc4ccc(OCc5cccc(F)c5)c(Cl)c4)c23)CC1 [Example 243, N-{3-chloro-4-[(3-fluorobenzyl)oxy]phenyl}-2-[(1-propylpiperidin-4-yl)methyl]-4,5-dihydro-2H-pyrimido[5′,4′:4,5]thieno[2,3-e]indazol-6-amine] | ≤ 5 | ≤ 1 |
| CCN1CCC(Cn2cc3c(n2)CCc2c-3sc3ncnc(Nc4ccc(OCc5cccc(F)c5)c(Cl)c4)c23)CC1 [Example 244, N-{3-chloro-4-[(3-fluorobenzyl)oxy]phenyl}-2-[(1-ethylpiperidin-4-yl)methyl]-4,5-dihydro-2H-pyrimido[5′,4′:4,5]thieno[2,3-e]indazol-6-amine] | ≤ 5 | ≤ 1 |
| CC(C)N1CCC(Cn2cc3c(n2)CCc2c-3sc3ncnc(Nc4ccc(OCc5cccc(F)c5)c(Cl)c4)c23)CC1 [Example 245, N-{3-chloro-4-[(3-fluorobenzyl)oxy]phenyl}-2-[(1-isopropylpiperidin-4-yl)methyl]-4,5-dihydro-2H-pyrimido[5′,4′:4,5]thieno[2,3-e]indazol-6-amine] | ≤ 5 | ≤ 1 |
| Fc1cccc(COc2ccc(Nc3ncnc4sc5c(c34)CCc3nn(CCC4CCN(Cc6ccco6)CC4)cc3-5)cc2Cl)c1 [Example 248, N-{3-chloro-4-[(3-fluorobenzyl)oxy]phenyl}-2-{2-[1-(2-furylmethyl)piperidin-4-yl]ethyl}-4,5-dihydro-2H-pyrimido[5′,4′:4,5]thieno[2,3-e]indazol-6-amine] | ≤ 5 | ≤ 1 |

The remaining lines, values ahead:

| IC50 [1] [µM] | IC50 [2] [µM] | SMILES |
| --- | --- | --- |
| ≤ 5 | ≤ 1 | OCC(CO)N1CCC(CCn2cc3c(n2)CCc2c-3sc3ncnc(Nc4ccc(OCc5cccc(F)c5)c(Cl)c4)c23)CC1 [Example 249, 2-(4-{2-[6-({3-chloro-4-[(3-fluorobenzyl)oxy]phenyl}amino)-4,5-dihydro-2H-pyrimido[5′,4′:4,5]thieno[2,3-e]indazol-2-yl]ethyl}piperidin-1-yl)propane-1,3-diol] |
| ≤ 5 | ≤ 1 | CCC(CC)CN1CCC(CCn2cc3c(n2)CCc2c-3sc3ncnc(Nc4ccc(OCc5cccc(F)c5)c(Cl)c4)c23)CC1 [Example 250, N-{3-chloro-4-[(3-fluorobenzyl)oxy]phenyl}-2-{2-[1-(2-ethylbutyl)piperidin-4-yl]ethyl}-4,5-dihydro-2H-pyrimido[5′,4′:4,5]thieno[2,3-e]indazol-6-amine] |
| ≤ 5 | ≤ 1 | CC(C)CN1CCC(CCn2cc3c(n2)CCc2c-3sc3ncnc(Nc4ccc(OCc5cccc(F)c5)c(Cl)c4)c23)CC1 [Example 251, N-{3-chloro-4-[(3-fluorobenzyl)oxy]phenyl}-2-[2-(1-isobutylpiperidin-4-yl)ethyl]-4,5-dihydro-2H-pyrimido[5′,4′:4,5]thieno[2,3-e]indazol-6-amine] |
| ≤ 5 | ≤ 1 | CC(C)N1CCC(CCn2cc3c(n2)CCc2c-3sc3ncnc(Nc4ccc(OCc5cccc(F)c5)c(Cl)c4)c23)CC1 [Example 252, N-{3-chloro-4-[(3-fluorobenzyl)oxy]phenyl}-2-[2-(1-isopropylpiperidin-4-yl)ethyl]-4,5-dihydro-2H-pyrimido[5′,4′:4,5]thieno[2,3-e]indazol-6-amine] |
| ≤ 5 | ≤ 1 | CCCN1CCC(CCn2cc3c(n2)CCc2c-3sc3ncnc(Nc4ccc(OCc5cccc(F)c5)c(Cl)c4)c23)CC1 [Example 253, N-{3-chloro-4-[(3-fluorobenzyl)oxy]phenyl}-2-[2-(1-propylpiperidin-4-yl)ethyl]-4,5-dihydro-2H-pyrimido[5′,4′:4,5]thieno[2,3-e]indazol-6-amine] |
| ≤ 5 | ≤ 1 | CCN1CCC(CCn2cc3c(n2)CCc2c-3sc3ncnc(Nc4ccc(OCc5cccc(F)c5)c(Cl)c4)c23)CC1 [Example 254, N-{3-chloro-4-[(3-fluorobenzyl)oxy]phenyl}-2-[2-(1-ethylpiperidin-4-yl)ethyl]-4,5-dihydro-2H-pyrimido[5′,4′:4,5]thieno[2,3-e]indazol-6-amine] |
| ≤ 5 | ≤ 1 | CN1CCC(CCn2cc3c(n2)CCc2c-3sc3ncnc(Nc4ccc(OCc5cccc(F)c5)c(Cl)c4)c23)CC1 [Example 255, N-{3-chloro-4-[(3-fluorobenzyl)oxy]phenyl}-2-[2-(1-methylpiperidin-4-yl)ethyl]-4,5-dihydro-2H-pyrimido[5′,4′:4,5]thieno[2,3-e]indazol-6-amine] |
| ≤ 5 | ≤ 1 | CC(C)CCN1CCC(CCn2cc3c(n2)CCc2c-3sc3ncnc(Nc4ccc(OCc5cccc(F)c5)c(Cl)c4)c23)CC1 [Example 256, N-{3-chloro-4-[(3-fluorobenzyl)oxy]phenyl}-2-{2-[1-(3-methylbutyl)piperidin-4-yl]ethyl}-4,5-dihydro-2H-pyrimido[5′,4′:4,5]thieno[2,3-e]indazol-6-amine] |
| ≤ 5 | ≤ 1 | OCC(O)CN1CCC(CCn2cc3c(n2)CCc2c-3sc3ncnc(Nc4ccc(OCc5cccc(F)c5)c(Cl)c4)c23)CC1 (stereo not drawn) [Example 257, 3-(4-{2-[6-({3-chloro-4-[(3-fluorobenzyl)oxy]phenyl}amino)-4,5-dihydro-2H-pyrimido[5′,4′:4,5]thieno[2,3-e]indazol-2-yl]ethyl}piperidin-1-yl)propane-1,2-diol] |
| ≤ 5 | ≤ 1 | CS(=O)(=O)OCCn1ncc2c1CCc1c-2sc2ncnc(Nc3ccc(OCc4cccc(F)c4)c(Cl)c3)c12 [Example 258, 2-[6-({3-chloro-4-[(3-fluorobenzyl)oxy]phenyl}amino)-4,5-dihydro-3H-pyrimido[5′,4′:4,5]thieno[2,3-e]indazol-3-yl]ethyl methanesulfonate] |
| ≤ 50 | ≤ 5 | Fc1cccc(COc2ccc(Nc3ncnc4sc5c(c34)CCc3c-5cnn3CCNCCN3CCOCC3)cc2Cl)c1 [Example 259, N-{3-chloro-4-[(3-fluorobenzyl)oxy]phenyl}-3-{2-[(2-morpholin-4-ylethyl)amino]ethyl}-4,5-dihydro-3H-pyrimido[5′,4′:4,5]thieno[2,3-e]indazol-6-amine] |
| ≤ 50 | ≤ 5 | COCCN(CCOC)CCn1ncc2c1CCc1c-2sc2ncnc(Nc3ccc(OCc4cccc(F)c4)c(Cl)c3)c12 [Example 260, 3-{2-[bis(2-methoxyethyl)amino]ethyl}-N-{3-chloro-4-[(3-fluorobenzyl)oxy]phenyl}-4,5-dihydro-3H-pyrimido[5′,4′:4,5]thieno[2,3-e]indazol-6-amine] |
